One may read the inhibition as the percentage by which the read-out fell short of the control.

Where only a bound is given, the exact number is not on record here.

For one experiment, the target named is T1, cKIT (Homo sapiens, UniProt P10721).
T1 construct: The kinase domain of cKIT was assayed in 50 mM Hepes; purchased Upstate 14-559
The experiment is described as follows: Inhibition of cKIT kinase in an in vitro biochemical assay (alphascreen). To be noted: tested at about 1 μM. As for the experimental part: (§1) The IC50 values for the inhibition of RTKs were determined in the alphascreen format measuring the inhibition by compound of phosphate transfer to a substrate by the respective enzyme. Briefly, the respective RTK domain purchased as human recombinant protein (cKIT Upstate #14-559, PDGFRb Invitrogen #P3082) were incubated with serial dilutions of compound in the presence of substrate and ATP concentrations within 3 times the Km of the enzyme.
(§2) The kinase domain of cKIT was assayed in 50 mM Hepes, pH=7.5, 5 mM MgCl2, 10 mM MnCl2, 1 mM DTT, 0.1% BSA with 0.06 uM biotinylated peptide substrate (GGLFDDPSYVNVQNL-NH2) and 15 μM ATP (ATP KM apparent =15 μM). The kinase domain of PDGFRβ was assayed in 50 mM Hepes, pH=7.5, 20 mM MgCl2, 1 mM DTT, 0.1% BSA with 0.1 μM biotinylated peptide substrate (GGLFDDPSYVNVQNL-NH2) and 10 μM ATP (ATP KM apparent=25 μM). Reactions were incubated at room temperature for 3 to 4 hr and stopped with buffer (20 mM EDTA, 0.01% Tween-20 for both PDGFRβ and cKIT). Alphascreen PY20 beads were added to the stopped cKIT reactions and PY20 Ab/Protein A Alphascreen beads were added to the PDGFRβ stopped reactions. Both reactions were incubated overnight and read on the Alphascreen reader. The concentration of compound for 50% inhibition (IC50) was calculated employing non-linear regression using XL-Fit data analysis software. As a control compound, staurosporine is run in every assay and a Z′>0.5 is required to validate results.

In the next experiment the target is T2, PDGFRb (Homo sapiens, UniProt P09619).
T2 construct: The kinase domain of PDGFRβ was assayed in 50 mM Hepes; purchased Invitrogen P3082
As to the kind of experiment: Inhibition of PDGFRb kinase in an in vitro biochemical assay (alphascreen). The following applies: tested at about 1 μM; read-out: PDGFR % inhibition at 1 μM. As for the experimental part:
as §1, §2
In general terms: In Alpha technology, singlet oxygen from a donor bead excites a nearby acceptor bead.

In experiment [1] the target is T3, cytoplasmic domain of the human CSF-1R (Homo sapiens, UniProt P07333).
T3 construct: Recombinant protein corresponding to the cytoplasmic domain of the human CSF-1R; purchased Invitrogen Corporation, Carlsbad, Calif; U.S.A. PV3249
T3 sequence (P07333 539-972 limits assumed): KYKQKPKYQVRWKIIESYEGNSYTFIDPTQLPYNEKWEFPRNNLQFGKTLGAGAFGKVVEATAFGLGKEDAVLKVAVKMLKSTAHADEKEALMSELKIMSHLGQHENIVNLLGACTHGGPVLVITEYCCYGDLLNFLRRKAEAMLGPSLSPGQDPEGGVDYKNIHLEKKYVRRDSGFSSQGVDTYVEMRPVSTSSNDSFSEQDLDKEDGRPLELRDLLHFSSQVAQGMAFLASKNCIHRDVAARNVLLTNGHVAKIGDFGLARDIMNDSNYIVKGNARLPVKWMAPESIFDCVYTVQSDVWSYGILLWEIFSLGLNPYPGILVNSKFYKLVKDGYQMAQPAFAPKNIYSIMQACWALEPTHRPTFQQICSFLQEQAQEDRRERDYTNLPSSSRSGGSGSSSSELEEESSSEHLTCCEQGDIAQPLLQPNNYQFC
As to the kind of experiment: In vitro kinase assay for CSF-1R (AlphaScreen). It is filed as biochemical. The following applies: tested at about 1 μM. Here is the method: The kinase activity of various protein tyrosine kinases can be measured by providing ATP and a suitable peptide or protein tyrosine-containing substrate, and assaying the transfer of phosphate moiety to the tyrosine residue. Recombinant protein corresponding to the cytoplasmic domain of the human CSF-1R was purchased from Invitrogen Corporation, Carlsbad, Calif. U.S.A. (#PV3249). For each assay, test compounds were serially diluted, starting at 25 μM with 3 fold dilutions, in DMSO in 384 well plates then mixed with an appropriate kinase reaction buffer consisting of 50 mM Hepes, 5 mM MgCl2, 10 mM MnCl2, 0.1% BSA, pH 7.5, 1.0 mM dithiothreitol, 0.01% Tween 80 plus […]. Kinase protein and an appropriate biotinylated peptide substrate at 50 nM were added to give a final volume of 20 μL, reactions were incubated for 2 hours at room temperature and stopped by the addition of 10 μL of 45 mM EDTA, 50 mM Hepes pH 7.5. Added to the stopped reaction mix was 30 μL of PT66 Alphascreen beads (Perkin Elmer, Boston, Mass., U.S.A.). The reaction was incubated overnight and read on the Envision (Perkin Elmer). Phosphorylated peptide product was measured with the AlphaScreen system (Perkin Elmer) using acceptor beads coated with anti-phosphotyrosine antibody PT66 and donor beads coated with streptavidin that emit a fluorescent signal at the 520-620 nm emission wave length if in close proximity. The concentration of each compound for 50% inhibition (IC50) was calculated by non-linear regression using XL Fit data analysis software.
CSF-1R kinase was assayed in 50 mM Hepes pH 7.0, 5 mM MgCl2, 10 mM MnCl2, 1 mM DTT, 1 mg/mL BSA, 1.0 μM ATP, and 0.05 μM biotin-GGGGRPRAATF-NH2 (SEQ ID NO:2) peptide substrate. CSF-1R kinase was added at final concentration of 4 nM.

T2 sequence (P09619 600-962 limits assumed): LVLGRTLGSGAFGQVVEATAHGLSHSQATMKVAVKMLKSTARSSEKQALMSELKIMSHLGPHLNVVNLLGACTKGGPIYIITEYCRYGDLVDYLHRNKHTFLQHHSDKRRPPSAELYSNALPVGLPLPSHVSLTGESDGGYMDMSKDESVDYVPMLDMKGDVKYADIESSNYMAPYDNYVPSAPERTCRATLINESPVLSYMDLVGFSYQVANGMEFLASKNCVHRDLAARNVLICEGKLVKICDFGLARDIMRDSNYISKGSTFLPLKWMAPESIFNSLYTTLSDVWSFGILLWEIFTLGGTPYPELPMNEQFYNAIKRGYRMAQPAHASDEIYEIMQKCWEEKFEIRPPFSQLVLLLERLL
T1 sequence (P10721 589-937 limits assumed): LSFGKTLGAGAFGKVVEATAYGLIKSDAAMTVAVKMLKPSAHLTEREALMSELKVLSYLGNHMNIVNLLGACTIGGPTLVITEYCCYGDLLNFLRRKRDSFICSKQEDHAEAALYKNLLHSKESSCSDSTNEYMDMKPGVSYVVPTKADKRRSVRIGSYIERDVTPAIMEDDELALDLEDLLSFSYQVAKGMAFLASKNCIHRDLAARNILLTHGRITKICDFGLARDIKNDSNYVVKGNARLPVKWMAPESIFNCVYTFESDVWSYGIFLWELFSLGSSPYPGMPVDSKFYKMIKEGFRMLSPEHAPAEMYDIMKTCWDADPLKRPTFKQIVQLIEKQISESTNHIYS

For the molecule `CC[C@H](C)[C@@H](CO)Nc1ncc2cc(Oc3ccnc(C(=O)NC)c3)ccc2n1` [Cmpd 14, 4-(2-((2S,3S)-1-hydroxy-3-methylpentan-2-ylamino)quinazolin-6-yloxy)-N-methylpicolinamide], the inhibition at 1 µM against cKIT turned out to be 19%; at PDGFRb, 15%; in experiment [1], 99%.

Consider `CNC(=O)c1cc(Oc2ccc3nc(N[C@@H](C)C4CCCCC4)ncc3c2)ccn1` [Cmpd 16, (S)-4-(2-(1-cyclohexylethylamino)quinazolin-6-yloxy)-N-methylpicolinamide], for which the inhibition at 1 µM at cKIT was 58%; on PDGFRb, 26%; in experiment [1], 100%.

On to `CNC(=O)c1cc(Oc2ccc3nc(N[C@@H](CO)C4CCCCC4)ncc3c2)ccn1` [Cmpd 17, (R)-4-(2-(1-cyclohexyl-2-hydroxyethylamino)quinazolin-6-yloxy)-N-methylpicolinamide], for which the inhibition at 1 µM was determined as 61% against cKIT, 38% on PDGFRb and 100% in experiment [1].

Turning to `CNC(=O)c1cc(Oc2ccc3nc(N[C@H](CO)C4CCCCC4)ncc3c2)ccn1` [Cmpd 18, (S)-4-(2-(1-cyclohexyl-2-hydroxyethylamino)quinazolin-6-yloxy)-N-methylpicolinamide], the figures for the inhibition at 1 µM (at cKIT; on PDGFRb; in experiment [1]) were 30%, 31% and 99%, respectively.

As for `CNC(=O)c1cc(Oc2ccc3nc(N[C@@H]4c5ccccc5C[C@@H]4O)ncc3c2)ccn1` [Cmpd 19, 4-(2-((1R,2S)-2-hydroxy-2,3-dihydro-1H-inden-1-ylamino)quinazolin-6-yloxy)-N-methylpicolinamide], the results for the inhibition at 1 µM (against cKIT; at PDGFRb; in experiment [1]) were 30%, 3% and 100%, respectively.

As for `CNC(=O)c1cc(Oc2ccc3nc(N[C@H]4c5ccccc5C[C@H]4O)ncc3c2)ccn1` [Cmpd 20, 4-(2-((1S,2R)-2-hydroxy-2,3-dihydro-1H-inden-1-ylamino)quinazolin-6-yloxy)-N-methylpicolinamide], the inhibition at 1 µM at cKIT turned out to be 60%; at PDGFRb it was 25%; in experiment [1], 100%.

In the case of `Cn1cc(-c2cc(Oc3ccc4nc(NCC5CCCCC5)ncc4c3)ccn2)cn1` [Cmpd 21, N-(cyclohexylmethyl)-6-(2-(1-methyl-1H-pyrazol-4-yl)pyridin-4-yloxy)quinazolin-2-amine], the inhibition at 1 µM against cKIT was determined as 100%; at PDGFRb, 91%; in experiment [1], 100%.

Take `c1ccc(N2CCOCC2)c(Nc2ncc3cc(Oc4ccncc4)ccc3n2)c1` [Cmpd 28, N-(2-morpholinophenyl)-6-(pyridin-4-yloxy)quinazolin-2-amine]: the results for the inhibition at 1 µM (against cKIT; at PDGFRb; in experiment [1]) were 8%, less than 1% and 52%, respectively.

As for `CNC(=O)c1cc(Oc2ccc3nc(N[C@@H]4CCCC[C@H]4O)ccc3c2)ccn1` [Example 1], the inhibition at 1 µM came to 51% on cKIT, 33% on PDGFRb and 100% in experiment [1].

Consider `CNC(=O)c1cc(Oc2ccc3nc(N[C@H]4CCCC[C@@H]4O)ccc3c2)ccn1` [Example 2], for which the values for the inhibition at 1 µM (against cKIT; at PDGFRb; in experiment [1]) were 21%, 32% and 100%, respectively.

On to `CNC(=O)c1cc(Oc2ccc3nc(N[C@@H](CO)C4CCCCC4)ccc3c2)ccn1` [Example 7], for which the results for the inhibition at 1 µM (at cKIT; on PDGFRb; in experiment [1]) were 31%, 16% and 98%, respectively.

Regarding `CNC(=O)c1cc(Oc2ccc3nc(N[C@@H]4CCCC[C@H]4O)ncc3c2)ccn1` [Example 11], the inhibition at 1 µM against cKIT stood at 23%; on PDGFRb it was 21%; in experiment [1], 99%.

`CNC(=O)c1cc(Oc2ccc3nc(N[C@H]4CCCC[C@@H]4O)ncc3c2)ccn1` [Example 12]: the inhibition at 1 µM against cKIT stood at 39%; at PDGFRb it was 39%; in experiment [1] it was 100%.

On to `CNC(=O)c1cc(Oc2ccc3nc(N[C@H](CO)Cc4ccccc4)ncc3c2)ccn1` [Example 13], for which the inhibition at 1 µM against cKIT turned out to be 28%; on PDGFRb it was 24%; in experiment [1], 88%.

For `CNC(=O)c1cc(Oc2ccc3nc(N[C@H](C)C4CCCCC4)ncc3c2)ccn1` [Example 15, (R)-4-(2-(1-cyclohexylethylamino)quinazolin-6-yloxy)-N-methylpicolinamide], the inhibition at 1 µM is 50% against cKIT, 26% on PDGFRb and 100% in experiment [1].

`Nc1cc(Oc2ccc3nc(Nc4ccccc4N4CCOCC4)ncc3c2)ccn1` [Example 29, 6-(2-aminopyridin-4-yloxy)-N-(2-morpholinophenyl)quinazolin-2-amine]: the values for the inhibition at 1 µM (at cKIT; at PDGFRb; in experiment [1]) were 9%, 1% and 90%, respectively.

Turning to `CN(C)C(=O)c1cc(Oc2ccc3nc(Nc4ccccc4N4CCOCC4)ncc3c2)ccn1` [Example 31, N,N-dimethyl-4-(2-(2-morpholinophenylamino)quinazolin-6-yloxy)picolinamide], the inhibition at 1 µM against cKIT is 8%; on PDGFRb it was less than 1%; in experiment [1], 67%.

With `CC(=O)Nc1cc(Oc2ccc3nc(Nc4ccccc4N4CCOCC4)ncc3c2)ccn1` [Example 32, N-(4-(2-(2-morpholinophenylamino)quinazolin-6-yloxy)pyridin-2-yl)acetamide], the inhibition at 1 µM against cKIT is 7%; at PDGFRb, less than 1%; in experiment [1] it was 99%.

`NC(=O)c1cc(Oc2ccc3nc(Nc4ccccc4N4CCOCC4)ncc3c2)ccn1` [Example 33, 4-(2-(2-morpholinophenylamino)quinazolin-6-yloxy)picolinamide]: the inhibition at 1 µM against cKIT is 14%; at PDGFRb, less than 1%; in experiment [1] it was 84%.

Take `CCNC(=O)c1cc(Oc2ccc3nc(Nc4ccccc4N4CCOCC4)ncc3c2)ccn1` [Example 34, N-ethyl-4-(2-(2-morpholinophenylamino)quinazolin-6-yloxy)picolinamide]: the inhibition at 1 µM against cKIT was found to be 14%; at PDGFRb, 2%; in experiment [1] it was 80%.

Take `CNC(=O)c1cc(Oc2ccc3nc(NCCN4CCOCC4)ncc3c2)ccn1` [Example 35, N-methyl-4-(2-(2-morpholinoethylamino)quinazolin-6-yloxy)picolinamide]: the figures for the inhibition at 1 µM (at cKIT; at PDGFRb; in experiment [1]) were 7%, less than 1% and 71%, respectively.

Source of the values: patent publication US20100261679A1 (priority 2007, published 2010).
